The text below walks through data of PubChem BioAssay (NCI).

“And” between values parts separate entries of the source, which are not always exact repeats. Equal values may be shown once.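 Interpolation was linear, between the two tested concentrations surrounding the appropriate level; five concentrations were tested over 48 hours in 96-well plates. The concentration for 50% growth inhibition is given as GI50. TGI marks complete inhibition of growth.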

What all share (assay): inhibition of tumour cell growth, NCI panel, 48 h
For assay [1], the system named is SK-MEL-5 melanoma.
The subject of assay [2] is HCT-15 colon.
The test system of assay [3] is MOLT-4 leukemia.
Assay [4] has as its system 786-0 renal.
For assay [5], the system named is SF-268 CNS.
The subject of assay [6] is KM12 colon.
Assay [7] concerns UACC-62 melanoma.
In assay [8] the test system is HOP-62 NSCLC.
In assay [9] the test system is MDA-MB-435.
Assay [10] deals with UACC-257 melanoma.

`Oc1cccc(-c2nc(N3CCOCC3)c3oc4ncccc4c3n2)c1`: the GI50 in assay [1] is 0.263 µM and 0.346 µM; in [2] it was 0.125 µM and 0.112 µM; in assay [3], 0.102 µM and 0.168 µM; in assay [4], 0.231 µM and 0.246 µM; in assay [5], 0.196 µM and 0.181 µM; in assay [6], 0.286 µM and 0.297 µM. For the same compound, the GI50 in [7] was 1.05 µM and 0.471 µM; in assay [8], 0.234 µM and 0.227 µM; in assay [9], 0.122 µM and 0.0675 µM; in assay [10] it was 0.593 µM and 0.421 µM. The TGI is 1.2 µM and 2.44 µM in assay [1]; over 100 µM in assay [2]; over 100 µM in [3]; 1.67 µM and 1.28 µM in assay [4]; > 100 µM and 19.9 µM in assay [5]; over 100 µM in [6]. For the same compound, the TGI in [7] is 3.03 µM and 1.64 µM; in assay [8], 3.7 µM and 5.53 µM; in assay [9] it was 0.847 µM and 0.784 µM; in assay [10], 3.39 µM and 3.79 µM.

`COc1cc(/C=C2\C(=O)Nc3ccc(Br)cc32)cc(OC)c1OC`: the GI50 in assay [1] is 6.33 µM; in [2] it was 3.37 µM; in assay [3] it was 8.51 µM; in [4], 27.2 µM; in assay [5] it was 36.9 µM; in [6] it was 3.33 µM. The GI50 was 5.96 µM in assay [7], 20.3 µM in [8], 2.02 µM in assay [9] and over 50.7 µM in assay [10]. Besides, the TGI was over 100 µM in assay [1]; over 100 µM in [2]; over 100 µM in assay [3]; over 100 µM in assay [4]; over 100 µM in assay [5]; over 92.4 µM in assay [6]. The TGI in assay [7] is over 100 µM; in assay [8], 81.4 µM; in [9], 7.19 µM; in assay [10], over 100 µM.

Regarding `Cc1cc(C)c2nccc(NCCCN(C)C)c2c1[N+](=O)[O-]`, the TGI is 26.6 µM in assay [1]; 30.7 µM in assay [2]; over 100 µM in [3]; over 100 µM in assay [4]; 95 µM in [5]; over 100 µM in assay [6]. Further, the TGI in assay [7] was over 100 µM; in assay [8], over 100 µM; in assay [9] it was over 100 µM; in assay [10], 33.7 µM.

Take `N#Cc1c(-c2ccc(Cl)cc2)csc1NC(=O)Nc1cccc(C(F)(F)F)c1`: the GI50 is 1.74 µM in assay [1]; 2.38 µM in assay [2]; 1.91 µM in [3]; 2 µM in [4]; 3.28 µM in [5]; 2.64 µM in assay [6]. The GI50 in assay [7] is 2.92 µM; in assay [8] it was 2.33 µM; in assay [9], 2.73 µM; in [10], 2.53 µM. For the same compound, the TGI was 3.18 µM in assay [1]; 10.2 µM in [2]; 7.77 µM in assay [3]; 4.85 µM in [4]; 14.7 µM in [5]; 9.9 µM in assay [6]. Also, the TGI in assay [7] was 12 µM; in assay [8] it was 8.04 µM; in assay [9], 10.3 µM; in assay [10], 6.74 µM.

Consider `COc1ccc(CNC(=O)c2ccc(-c3cc(-c4nnc(C)o4)ccc3C)cc2)cc1`, for which the GI50 in assay [1] was 6.17 µM; in [2], 19.9 µM; in [3] it was 15.6 µM; in assay [4] it was over 25 µM; in [5], 21 µM; in assay [6] it was over 25 µM. Besides, the GI50 in assay [7] is 11.1 µM; in assay [8], 17.5 µM; in assay [9] it was 10.6 µM; in [10] it was 12.8 µM. Also, the TGI is over 19.9 µM in assay [1]; over 25 µM in assay [2]; over 25 µM in assay [3]; over 25 µM in [4]; over 25 µM in assay [5]; over 25 µM in assay [6]. Also, the TGI in assay [7], in [8], in assay [9] and in assay [10] was over 25 µM each time.

As for `C#CCn1cc(C=C2C(=O)NC(=S)NC2=O)c2cc(Cl)ccc21`, the GI50 is 1.81 µM in [1]; 1.98 µM in assay [2]; 2.44 µM in assay [3]; 2.17 µM in assay [4]; 2.12 µM in assay [5]; 1.62 µM in assay [6]. For the same compound, the GI50 is 1.85 µM in assay [7], 2.64 µM in assay [8], 1.92 µM in assay [9] and 2.88 µM in assay [10]. The TGI in [1] turned out to be 3.31 µM; in [2] it was 4.64 µM; in assay [3] it was 6.38 µM; in [4], 5.04 µM; in [5] it was 5.41 µM; in assay [6], 3.33 µM. Also, the TGI in assay [7] worked out at 3.91 µM; in assay [8] it was 8.98 µM; in [9], 4.36 µM; in [10], 8.63 µM.
